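GI50 marks 50% less growth. At the TGI there is no net growth.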
How the values were obtained:
Assay in all cases: NCI tumour cell line growth inhibition, 384-well format
786-0 renal = tested on: 786-0 renal
ACHN renal = tested on: ACHN renal
CAKI-1 renal = tested on: CAKI-1 renal
HCT-116 colon = tested on: HCT-116 colon
HOP-62 NSCLC = tested on: HOP-62 NSCLC
MDA-MB-231 breast = tested on: MDA-MB-231 breast
NCI-H522 lung = tested on: NCI-H522 lung
RPMI-8226 leukemia = tested on: RPMI-8226 leukemia
SF-539 CNS = tested on: SF-539 CNS
SK-OV-3 ovarian = tested on: SK-OV-3 ovarian
SNB-19 CNS = tested on: SNB-19 CNS
SR leukemia = tested on: SR leukemia
UACC-62 melanoma = tested on: UACC-62 melanoma

Q: FC(F)(F)c1ccc(CNc2ccc(Cc3c[nH]c4ncc(Cl)cc34)cn2)cn1 was tested. Which GI50 (786-0 renal) did it give?
A: Its GI50 is 3.7 µM.

Q: And the TGI (786-0 renal)?
A: The TGI was 10.7 µM.

Q: What about the GI50 (ACHN renal) of the same compound?
A: Its GI50 is 14.1 µM.

Q: And the TGI (ACHN renal)?
A: Its TGI is 30.7 µM.

Q: What about the GI50 (CAKI-1 renal) of the same compound?
A: Its GI50 is 14.7 µM.

Q: What about the TGI (CAKI-1 renal) of the same compound?
A: The TGI was 28.8 µM.

Q: And the GI50 (HCT-116 colon)?
A: Its GI50 is 12.8 µM.

Q: And the TGI (HCT-116 colon)?
A: The TGI was 25.9 µM.

Q: And the GI50 (HOP-62 NSCLC)?
A: Its GI50 is 12.2 µM.

Q: What about the TGI (HOP-62 NSCLC) of the same compound?
A: Its TGI is 25.5 µM.

Q: And the GI50 (MDA-MB-231 breast)?
A: The GI50 was 13.7 µM.

Q: And the TGI (MDA-MB-231 breast)?
A: The TGI was 26.7 µM.

Q: What about the GI50 (NCI-H522 lung) of the same compound?
A: Its GI50 is 8.58 µM.

Q: And the TGI (NCI-H522 lung)?
A: The TGI was 21 µM.

Q: And the GI50 (RPMI-8226 leukemia)?
A: Its GI50 is 6.96 µM.

Q: What about the TGI (RPMI-8226 leukemia) of the same compound?
A: Its TGI is 19.1 µM.

Q: What about the GI50 (SF-539 CNS) of the same compound?
A: The GI50 was 11.2 µM.

Q: And the TGI (SF-539 CNS)?
A: The TGI was 23.7 µM.

Q: What about the GI50 (SK-OV-3 ovarian) of the same compound?
A: Its GI50 is 12 µM.

Q: And the TGI (SK-OV-3 ovarian)?
A: The TGI was 26 µM.

Q: What about the GI50 (SNB-19 CNS) of the same compound?
A: The GI50 was 15.9 µM.

Q: And the TGI (SNB-19 CNS)?
A: Its TGI is 30.5 µM.

Q: And the GI50 (SR leukemia)?
A: The GI50 was 2130 nM.

Q: And the TGI (SR leukemia)?
A: The TGI was 5.5 µM.

Q: What about the GI50 (UACC-62 melanoma) of the same compound?
A: The GI50 was 12.5 µM.

Q: And the TGI (UACC-62 melanoma)?
A: Its TGI is 25.3 µM.

— PubChem BioAssay (NCI)
